Source: the supplement of paper PMC10307832

How the values were obtained:
Experiment in all cases: relative viability (nuclei count vs DMSO), 5 days (fraction); higher = more cells survive
A-427 = tested on: A-427
Summary of the method: (§1)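 The day after seeding in 1536-well plates, lung cancer cell lines were treated by pin tool with a single drug, or with a fixed anchor-drug dose together with five library-drug doses (not always all listed) in √10 steps. After 5 days, a combined fix-and-stain solution (final 0.05% Triton X-100, 1% formaldehyde, 1 ug/ml Hoechst) was added. Nuclei counted on 4× images gave relative viability as treated counts over vehicle counts, reported as the median of duplicate plates.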

ABC-1 = tested on: ABC-1
Summary of the method: as §1

COR-L23 = tested on: COR-L23
Summary of the method: as §1

EMC-BAC-2 = tested on: EMC-BAC-2
Summary of the method: as §1

HARA = tested on: HARA
Summary of the method: as §1

HOP-62 = tested on: HOP-62
Summary of the method: as §1

LK-2 = tested on: LK-2
Summary of the method: as §1

LU99A = tested on: LU99A
Summary of the method: as §1

LXF-289 = tested on: LXF-289
Summary of the method: as §1

NCI-H1792 = tested on: NCI-H1792
Summary of the method: as §1

NCI-H1793 = tested on: NCI-H1793
Summary of the method: as §1

NCI-H1944 = tested on: NCI-H1944
Summary of the method: as §1

NCI-H1993 = tested on: NCI-H1993
Summary of the method: as §1

NCI-H2009 = tested on: NCI-H2009
Summary of the method: as §1

NCI-H2228 = tested on: NCI-H2228
Summary of the method: as §1

NCI-H3122 = tested on: NCI-H3122
Summary of the method: as §1

NCI-H596 = tested on: NCI-H596
Summary of the method: as §1

NCI-H727 = tested on: NCI-H727
Summary of the method: as §1

PC-3 [JPC-3] = tested on: PC-3 [JPC-3]
Summary of the method: as §1

SK-LU-1 = tested on: SK-LU-1
Summary of the method: as §1

SK-MES-1 = tested on: SK-MES-1
Summary of the method: as §1

SW 1573 = tested on: SW 1573
Summary of the method: as §1

Question: Which results are given for `Clc1ccc(Nc2nnc(Cc3ccncc3)c3ccccc23)cc1` [Vatalanib] + C[C@]1(O)C[C@@H](c2nc(-c3ccc4ccc(-c5ccccc5)nc4c3)c3c(N)nccn32)C1 [Linsitinib] (partner 1 µM)?
Answer: relative viability (A-427; first compound 0.04 µM): 1.15; relative viability (A-427; first compound 0.1265 µM): 1.1; relative viability (A-427; first compound 0.4 µM): 1.13; relative viability (A-427; first compound 1.265 µM): 1.06; relative viability (A-427; first compound 4 µM): 1.1; relative viability (ABC-1; first compound 0.04 µM): 0.89; relative viability (ABC-1; first compound 0.1265 µM): 0.767; relative viability (ABC-1; first compound 0.4 µM): 1.05; relative viability (ABC-1; first compound 1.265 µM): 0.659; relative viability (ABC-1; first compound 4 µM): 0.981; relative viability (COR-L23; first compound 0.04 µM): 0.978; relative viability (COR-L23; first compound 0.1265 µM): 0.943; relative viability (COR-L23; first compound 0.4 µM): 1.08; relative viability (COR-L23; first compound 1.265 µM): 0.811; relative viability (COR-L23; first compound 4 µM): 0.922; relative viability (EMC-BAC-2; first compound 0.04 µM): 0.817; relative viability (EMC-BAC-2; first compound 0.1265 µM): 0.762; relative viability (EMC-BAC-2; first compound 0.4 µM): 0.793; relative viability (EMC-BAC-2; first compound 1.265 µM): 0.808; relative viability (EMC-BAC-2; first compound 4 µM): 0.802; relative viability (HARA; first compound 0.04 µM): 1.02; relative viability (HARA; first compound 0.1265 µM): 0.896; relative viability (HARA; first compound 0.4 µM): 1; relative viability (HARA; first compound 1.265 µM): 0.84; relative viability (HARA; first compound 4 µM): 0.838; relative viability (HOP-62; first compound 0.04 µM): 0.785; relative viability (HOP-62; first compound 0.4 µM): 1.02; relative viability (HOP-62; first compound 1.265 µM): 0.922; relative viability (HOP-62; first compound 4 µM): 0.876; relative viability (LK-2; first compound 0.04 µM): 0.712; relative viability (LK-2; first compound 0.1265 µM): 0.423; relative viability (LK-2; first compound 0.4 µM): 0.541; relative viability (LK-2; first compound 1.265 µM): 0.435; relative viability (LK-2; first compound 4 µM): 0.704; relative viability (LU99A; first compound 0.04 µM): 0.545; relative viability (LU99A; first compound 0.1265 µM): 0.585; relative viability (LU99A; first compound 0.4 µM): 0.558; relative viability (LU99A; first compound 1.265 µM): 0.534; relative viability (LU99A; first compound 4 µM): 0.49; relative viability (LXF-289; first compound 0.04 µM): 1.04; relative viability (LXF-289; first compound 0.1265 µM): 0.947; relative viability (LXF-289; first compound 0.4 µM): 0.957; relative viability (LXF-289; first compound 1.265 µM): 0.888; relative viability (LXF-289; first compound 4 µM): 0.919; relative viability (NCI-H1792; first compound 0.04 µM): 0.465; relative viability (NCI-H1792; first compound 0.1265 µM): 0.494; relative viability (NCI-H1792; first compound 0.4 µM): 0.506; relative viability (NCI-H1792; first compound 1.265 µM): 0.493; relative viability (NCI-H1792; first compound 4 µM): 0.515; relative viability (NCI-H1793; first compound 0.04 µM): 0.857; relative viability (NCI-H1793; first compound 0.1265 µM): 0.693; relative viability (NCI-H1793; first compound 0.4 µM): 0.816; relative viability (NCI-H1793; first compound 1.265 µM): 0.719; relative viability (NCI-H1793; first compound 4 µM): 0.819; relative viability (NCI-H1944; first compound 0.04 µM): 1.11; relative viability (NCI-H1944; first compound 0.1265 µM): 0.997; relative viability (NCI-H1944; first compound 0.4 µM): 1.17; relative viability (NCI-H1944; first compound 1.265 µM): 1.2; relative viability (NCI-H1944; first compound 4 µM): 1.23; relative viability (NCI-H1993; first compound 0.04 µM): 0.699; relative viability (NCI-H1993; first compound 0.1265 µM): 0.754; relative viability (NCI-H1993; first compound 0.4 µM): 0.745; relative viability (NCI-H1993; first compound 1.265 µM): 0.727; relative viability (NCI-H1993; first compound 4 µM): 0.734; relative viability (NCI-H2009; first compound 0.04 µM): 1.16; relative viability (NCI-H2009; first compound 0.1265 µM): 1.04; relative viability (NCI-H2009; first compound 0.4 µM): 1.3; relative viability (NCI-H2009; first compound 1.265 µM): 1.16; relative viability (NCI-H2009; first compound 4 µM): 1.18; relative viability (NCI-H2228; first compound 0.04 µM): 0.825; relative viability (NCI-H2228; first compound 0.1265 µM): 0.508; relative viability (NCI-H2228; first compound 0.4 µM): 0.83; relative viability (NCI-H2228; first compound 1.265 µM): 0.664; relative viability (NCI-H2228; first compound 4 µM): 0.761; relative viability (NCI-H3122; first compound 0.04 µM): 1.14; relative viability (NCI-H3122; first compound 0.1265 µM): 0.97; relative viability (NCI-H3122; first compound 0.4 µM): 0.961; relative viability (NCI-H3122; first compound 1.265 µM): 1.02; relative viability (NCI-H3122; first compound 4 µM): 1.02; relative viability (NCI-H596; first compound 0.04 µM): 1.18; relative viability (NCI-H596; first compound 0.1265 µM): 1.13; relative viability (NCI-H596; first compound 0.4 µM): 0.951; relative viability (NCI-H596; first compound 1.265 µM): 1.14; relative viability (NCI-H596; first compound 4 µM): 1.08; relative viability (NCI-H727; first compound 0.04 µM): 0.3; relative viability (NCI-H727; first compound 0.1265 µM): 0.184; relative viability (NCI-H727; first compound 0.4 µM): 0.358; relative viability (NCI-H727; first compound 1.265 µM): 0.236; relative viability (NCI-H727; first compound 4 µM): 0.285; relative viability (PC-3 [JPC-3]; first compound 0.04 µM): 0.986; relative viability (PC-3 [JPC-3]; first compound 0.1265 µM): 1.01; relative viability (PC-3 [JPC-3]; first compound 0.4 µM): 0.957; relative viability (PC-3 [JPC-3]; first compound 1.265 µM): 0.824; relative viability (PC-3 [JPC-3]; first compound 4 µM): 0.932; relative viability (SK-LU-1; first compound 0.04 µM): 1.45; relative viability (SK-LU-1; first compound 0.1265 µM): 1.13; relative viability (SK-LU-1; first compound 0.4 µM): 1.28; relative viability (SK-LU-1; first compound 1.265 µM): 1.04; relative viability (SK-LU-1; first compound 4 µM): 1.03; relative viability (SK-MES-1; first compound 0.04 µM): 1.04; relative viability (SK-MES-1; first compound 0.1265 µM): 1.03; relative viability (SK-MES-1; first compound 0.4 µM): 1.17; relative viability (SK-MES-1; first compound 1.265 µM): 1.02; relative viability (SK-MES-1; first compound 4 µM): 0.928; relative viability (SW 1573; first compound 0.04 µM): 1; relative viability (SW 1573; first compound 0.1265 µM): 0.791; relative viability (SW 1573; first compound 0.4 µM): 0.781; relative viability (SW 1573; first compound 1.265 µM): 0.802; relative viability (SW 1573; first compound 4 µM): 0.723
